Measured values published in patent publication US4760072A, “Solid nedocromil sodium, useful for the removal of obstructed air pathways” (Fisons, plc, priority 1984, dated 1988).
Values joined by “and” are separate entries in the source; they are usually repeats but may differ in a detail not shown here. Identical values can stand only once. Counter-ions that a name gives are not always drawn.

Key:
[1] = Powder X-ray diffraction, crystallinity; format: physicochemical
From the text: These peaks indicate that the material is crystalline.
In addition to the form A material there is a less desired form B which is of darker yellow colour, i.e. gives a yellow reading of 2.0 or more at 10% w/w total water using a Lovibond tintometer.

[2] = Bound water / thermogravimetric analysis; format: physicochemical
Protocol: Form A material containing bound water can best be identified by thermogravimetric analysis in which the temperature of the material to be tested is increased at a constant rate and the change in weight of the sample is recorded against time.
(a) Two samples of about 5 mg of nedocromil sodium were submitted to thermogravimetric analysis at a scan rate of 20° C. per minute.

[3] = Aerosol dispersion with single stage liquid impinger; format: physicochemical
From the text: The single stage liquid impinger samples the whole cloud delivered from the aerosol and separates it into two fractions by inertial impaction. The fraction of smaller particle size is less than 10 microns in aerodynamic diameter and represents material which is likely to penetrate into the deeper regions of the human airways.
In four laboratory precipitations using this method particles of mass mean diameter 2.5, 2.5, 2.8 and 2.8 microns were produced, and these gave aerosol dispersions of 26% and 23% from a 50 microliter valve using the formulation described in Example 1. The dispersion was measured with a single stage liquid impinger.

[4] = Air classification of ground nedocromil sodium; format: physicochemical
From the text: It is further known to be desirable to make inhalation pharmaceuticals in the form of fine particles. These fine particles are conventionally made by grinding or milling larger sized particles of the pharmaceutical. Generally grinding and milling machines are extremely efficient and reduce the particle size of the material as far as they are capable in a single pass. Indeed the mass median diameter of product material can increase after a second pass through the grinder because some of the finest particles are lost to the system. We have also attempted to produce a material of very fine particle size by air classification of ground nedocromil sodium.

[5] = 20° C.; cited from earlier work
[6] = Viscosity of precipitated crystal slurry; format: physicochemical; settings: 140 ml isopropanol at 15° C. added; cooled to 22° C. in 30 minutes
Protocol: Twenty grams of crude nedocromil sodium were mixed with 60 ml of deionised water and 180 ml of isopropyl alcohol in a 700 ml reaction flask. The mixture was agitated with an anchor-type agitator at 120 rpm and heated to boiling point at about 80° C. The solution was refluxed for 10 minutes and then cooled to 75° C. To it was then added a further 140 ml isopropanol at 15° C. […] The resulting slurry was then agitated as in Example 4 and cooled in an ice/salt/isopropanol bath to 22° C. in 30 minutes. […] This slurry was filtered, washed and dried as in Example 4.

[7] = Solid form produced by precipitation process; format: physicochemical
Protocol: Twenty grams of the nedocromil sodium were dissolved in 60 ml of deionised water and 180 ml of isopropyl alcohol by heating to reflux at 81° C. To this solution was then added a further 190 ml of isopropanol (temperature 25° C.) with agitation. The crystal slurry was then cooled in air, maintaining agitation, until a temperature of 25° C. had been reached. The crystals were then filtered on a Buchner filter, using a terylene filter cloth. The filter cake was washed with a displacement volume of isopropanol and filtered further. The cake was then dried in an oven, at atmospheric pressure and 60° C., to constant weight.
1 Kg of nedocromil sodium is dissolved in three liters of deionised water and six liters of isopropanol at 30° C., and the mixture is then heated to reflux (at 81° C.) with agitation to ensure dissolution. The resulting solution is cooled slightly to about 75° C. and then added to another 12.5 liters of isopropanol at a temperature of about -8° C., as quickly as possible. This precipitates out most of the nedocromil sodium and produces a slurry. This slurry is then stirred and cooled to 25° C. over about an hour, to precipitate out further material. The temperature of the slurry is kept at 25° C. and the slurry filtered as soon as possible to remove the mother liquor, and then dried to constant weight at 60° C. […]

[8] = Physical stability of solid form B; format: physicochemical
[9] = Particle size analysis by Joyce-Loebl disc centrifuge; format: physicochemical; settings: four laboratory precipitations; Apex milled and micronised in a fluid energy mill
Protocol: By mass median diameter we mean the diameter such that half the particulate mass is in particles of lesser diameter and half in particles of greater diameter. The mass median diameter is essentially a Stokes diameter and may be determined using a Joyce Loebl sedimentation disc centrifuge either in a two layer or line start photometric mode (Bagness J and Ottaway A. Proc. Soc. Analyt. Chem. Part 4, Vol 9, 1972 pages 83-86).
Twenty grams of nedocromil sodium were mixed with 60 ml of de-ionised water and 180 ml isopropanol in a 700 ml reaction flask. The mixture was agitated with an anchor-type stirrer at 120 rpm, and heated to its boiling point at around 80° C. The flask was fitted with a water-cooled condenser to prevent escape of isopropanol vapour. The resulting solution was refluxed for about 10 minutes to ensure complete dissolution. The hot solution of nedocromil sodium was then cooled to 75° C. and then added in about 20 seconds to 190 ml of isopropanol at 8° C. The resulting slurry was stirred with the anchor agitator and cooled to 25° C. in the reaction flask. The time taken for cooling was about 45 minutes and throughout this time the crystal slurry remained as the pale yellow, free flowing form. The slurry was then filtered on a Buchner filter using terylene filter cloth, washed with about 50 ml isopropanol and dried in an oven at 60° C. to constant weight. […]

Compound: CCCc1c2oc(C(=O)O)cc(=O)c2cc2c(=O)cc(C(=O)O)n(CC)c12 [Form A]
- crystallinity by powder X-ray diffraction [1]: crystalline
- thermogravimetric trace (in words) [2]: discontinuous
- removability of bound water on intensive drying ([2]; atmospheric pressure): cannot readily be removed by intensive drying at atmospheric pressure without destroying the compound

Compound: CCCc1c2oc(C(=O)O)cc(=O)c2cc2c(=O)cc(C(=O)O)n(CC)c12 [nedocromil sodium, disodium salt of 9-ethyl-6,9-dihydro-4,6-dioxo-10-propyl-4H-pyrano[3,2-g]-quinoline-2,8-dicarboxylic acid]
- dispersion of aerosol units, relative to larger mass median diameter ([3]; mass median diameter less than 4 microns vs exactly analogous units of larger mass median diameter): greater dispersion than exactly analogous units containing nedocromil sodium of larger mass median diameter
- mean particle size after air classification [4]: larger mean particle size than the starting material

Compound: FC(F)(Cl)C(F)(F)Cl [Propellant 114, 1,2-dichlorotetrafluoroethane]
- vapour pressure (absolute) [5]: about 180 k Pa

Compound: CCCc1c2oc(C(=O)O)cc(=O)c2cc2c(=O)cc(C(=O)O)n(CC)c12 [Example 6]
- viscosity of slurry [6]: about 20,000 centipoise
- form of nedocromil sodium produced [7]: form B
- bound water (in words) [2]: no tightly bound water

Compound: CCCc1c2oc(C(=O)O)cc(=O)c2cc2c(=O)cc(C(=O)O)n(CC)c12 [Form B]
- crystallinity by powder X-ray diffraction [1]: amorphous
- bound water (in words) [2]: no bound water
- thermogravimetric trace (in words) [2]: essentially continuous trace
- coalescence on change to form A [8]: can coalesce to produce hard and intractable lumps of particle size larger than the original material
- spontaneous change to form A [8]: can, but does not necessarily,change spontaneously (sometimes after a very considerable time) to form A

Compound: FC(F)(Cl)Cl [Propellant 12, dichlorodifluoromethane]
- vapour pressure (absolute) [5]: about 570 k Pa

Compound: CCCc1c2oc(C(=O)O)cc(=O)c2cc2c(=O)cc(C(=O)O)n(CC)c12 [Example 4]
- mass mean diameter [9]: 2.5 microns and 2.8 microns
- aerosol dispersion ([3]; 50 microliter valve, formulation described in Example 1): 26% and 23%
